Laboratory results taken from patent publication US20250230193A1, “CYCLIC COMPOUND HAVING SELECTIVE KRAS INHIBITORY EFFECT ON HRAS AND NRAS” (CHUGAI SEIYAKU KABUSHIKI KAISHA, priority 2022, published 2025).
*1 amine or outer side, *2 acyl side, *3 side chain or, on linkers, in order; H or OH if unused. Where a SMILES comes first, the peptide text is derived from it. Bridges are numbered along the chain shown (N, C = ends). [ ]: non-standard residue; d: D form. The star is where a group is joined. hPhe(3-Cl-4-CF3) = N[C@@H](CCc1ccc(C(F)(F)F)c(Cl)c1)C(=O)O; NPrPhe(4-CF3) = CCCN[C@@H](Cc1ccc(C(F)(F)F)cc1)C(=O)O; X44 = CCCN([C@@H](Cc1ccccc1)C(=O)[*:2])[*:1]; NMeGly(cPent) = CN[C@H](C(=O)O)C1CCCC1; Hyp = O=C(O)[C@@H]1C[C@@H](O)CN1; NMeD = CN[C@@H](CC(=O)O)C(=O)O; NMeL = CN[C@@H](CC(C)C)C(=O)O; Morpholide = C1CN(*)CCO1; NMeA = CN[C@@H](C)C(=O)O; Ac5c = NC1(C(=O)O)CCCC1; Aze = O=C(O)[C@@H]1CCN1; Ac4c = NC1(C(=O)O)CCC1; X25 = CC1(C)CCN(*)C1; Sar = CNCC(=O)O

What was measured:
[1] = molecular target: GDP-bound NRAS wild-type protein (Homo sapiens, UniProt P01111); assay: Binding to NRAS by surface plasmon resonance (SPR), Single Cycle Kinetics; settings: SPR; for NRAS/KRAS (ratio of KD value with respect to NRAS to KD value with respect to KRAS): GDP-bound NRAS wild-type vs GDP-bound KRAS wild-type
[2] = molecular target: GDP-bound HRAS wild-type protein (Homo sapiens, UniProt P01112); assay: Binding to HRAS by surface plasmon resonance (SPR), Single Cycle Kinetics; settings: SPR; for HRAS/KRAS (ratio of KD value with respect to HRAS to KD value with respect to KRAS): GDP-bound HRAS wild-type vs GDP-bound KRAS wild-type
Sequence of GDP-bound HRAS wild-type protein (P01112 whole entry): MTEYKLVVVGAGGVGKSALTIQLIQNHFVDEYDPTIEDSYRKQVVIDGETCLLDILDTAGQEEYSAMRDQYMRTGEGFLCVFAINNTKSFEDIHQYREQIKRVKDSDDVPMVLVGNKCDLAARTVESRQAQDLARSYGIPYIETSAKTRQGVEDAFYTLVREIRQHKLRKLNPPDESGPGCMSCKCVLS

Sequence of GDP-bound NRAS wild-type protein (P01111 whole entry): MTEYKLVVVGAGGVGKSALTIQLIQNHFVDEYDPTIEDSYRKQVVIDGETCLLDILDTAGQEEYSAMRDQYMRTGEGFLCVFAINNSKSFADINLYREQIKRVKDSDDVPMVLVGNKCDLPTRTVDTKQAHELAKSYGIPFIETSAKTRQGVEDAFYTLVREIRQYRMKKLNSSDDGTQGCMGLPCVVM

| Compound | NRAS/KRAS (ratio of KD value with respect to NRAS to KD value with respect to KRAS) ([1]; KD ratio) | HRAS/KRAS (ratio of KD value with respect to HRAS to KD value with respect to KRAS) ([2]; KD ratio) | NRAS/KRAS (ratio of KD for GDP-bound NRAS wild-type to KD for KRAS) [1] | HRAS/KRAS (ratio of KD for GDP-bound HRAS wild-type to KD for KRAS) [2] | further results |
| --- | --- | --- | --- | --- | --- |
| CCO[C@@H]1C[C@H]2C(=O)NC3(CC=CC3)C(=O)N(C)[C@@H](C3CCCC3)C(=O)N(CC)[C@H](C(=O)N3CCOCC3)CC(=O)N(C)[C@@H](CC(C)C)C(=O)N[C@@H]([C@@H](C)CC)C(=O)N(C)CC(=O)N(C)[C@H]3CCCCCN(C3=O)[C@@H](Cc3ccc(C(F)(F)F)cc3)C(=O)N(C)CC(=O)N[C@@H](CCc3cc(F)c(C(F)(F)F)c(F)c3)C(=O)N2C1 [PP0956] | A (a compound having 10 or more and less than 20 is denoted as A) | A (a compound having 10 or more and less than 20 is denoted as A) | – | – | – |
| CCO[C@@H]1C[C@H]2C(=O)NC3(CCC3)C(=O)N(C)[C@@H](C3CCCC3)C(=O)N(C)[C@H](C(=O)N(C)C)CC(=O)N(C)[C@@H](CSC)C(=O)N[C@@H]([C@@H](C)CC)C(=O)N(C)CC(=O)N(C)[C@H]3C/C=C\CCN(C3=O)[C@@H](Cc3ccc(C(F)(F)F)cc3)C(=O)N(C)CC(=O)N[C@@H](CCc3cc(F)c(C(F)(F)F)c(F)c3)C(=O)N2C1 [PP1119] | A (a compound having 10 or more and less than 20 is denoted as A) | A (a compound having 10 or more and less than 20 is denoted as A) | – | – | – |
| CCO[C@H]1CCN2C(=O)[C@H](CCc3cc(F)c(C(F)(F)F)c(F)c3)NC(=O)CN(C)C(=O)[C@H](Cc3ccc(C(F)(F)F)cc3)N3CCCC[C@@H](C3=O)N(C)C(=O)CN(C)C(=O)[C@H]([C@@H](C)CC)NC(=O)[C@H](CC(C)C)N(C)C(=O)C[C@@H](C(=O)N3CCOCC3)N(C)C(=O)[C@H](C3CCCC3)N(C)C(=O)C3(CCC3)NC(=O)[C@H]12 [PP1076] | B (a compound having 3 or more and less than 10 is denoted as B) | B (a compound having 3 or more and less than 10 is denoted as B) | – | – | – |
| CCCOC[C@H]1C(=O)N[C@@H]([C@@H](C)CC)C(=O)N(C)CC(=O)N(C)[C@H]2C/C=C\CCN(C2=O)[C@@H](CC2CCC(F)(F)CC2)C(=O)N(C)CC(=O)N[C@@H](CCc2cc(F)c(C(F)(F)F)c(F)c2)C(=O)N2C[C@H](OCC)C[C@H]2C(=O)NC2(CC(C)(C)C2)C(=O)N(C)[C@@H](C(CC)CC)C(=O)N(C)[C@H](C(=O)N(C)C)CC(=O)N1C [PP2472] | – | – | – | – | NRAS/KRAS (ratio of KD value with respect to NRAS to KD value with respect to KRAS) [1]: A (a compound having 10 or more and less than 20 is denoted as A); HRAS/KRAS (ratio of KD value with respect to HRAS to KD value with respect to KRAS) [2]: A (a compound having 10 or more and less than 20 is denoted as A) |
| CCCN1C(=O)[C@@H]2CCN2C(=O)[C@H](C)N(C)C(=O)[C@H]([C@@H](C)CC)NC(=O)[C@H](CC(C)C)N(C)C(=O)C[C@@H](C(=O)N2CCC(C)(C)C2)N(C)C(=O)[C@H](C2CCCC2)N(C)C(=O)C2(CCCC2)NC(=O)[C@@H]2CCCN2C(=O)[C@H](CCc2ccc(C(F)(F)F)c(Cl)c2)NC(=O)CN(C)C(=O)[C@@H]1Cc1ccc(C(F)(F)F)cc1 [PP0186] ([NMeL]I[NMeA][Aze][NPrPhe(4-CF3)][Sar][hPhe(3-Cl-4-CF3)]P[Ac5c][NMeGly(cPent)][NMeD]-X25; lactam N-11) | – | – | C (A compound having a KD ratio of 0.1 or more and less than 3 is denoted as C) | B (a compound having 3 or more and less than 10 is denoted as B) | – |
| CCCN1C(=O)[C@@H]2CCN2C(=O)CN(C)C(=O)[C@H]([C@@H](C)CC)NC(=O)[C@H](CC(C)C)N(C)C(=O)C[C@@H](C(=O)N2CCOCC2)NC(=O)[C@H](C2CCCC2)N(C)C(=O)C2(CCC2)NC(=O)[C@@H]2C[C@@H](OCC)CN2C(=O)[C@H](CCc2ccc(C(F)(F)F)c(Cl)c2)NC(=O)CN(C)C(=O)[C@@H]1Cc1ccc(C(F)(F)F)cc1 [PP0354] ([NMeL]I[Sar][Aze][NPrPhe(4-CF3)][Sar][hPhe(3-Cl-4-CF3)][Hyp](Et)[Ac4c][NMeGly(cPent)]D-Morpholide; lactam N-11) | – | – | C (A compound having a KD ratio of 0.1 or more and less than 3 is denoted as C) | B (a compound having 3 or more and less than 10 is denoted as B) | – |
| CCCN1C(=O)[C@@H]2CCN2C(=O)[C@H](C)N(C)C(=O)[C@H]([C@@H](C)CC)NC(=O)[C@H](CC(C)C)N(C)C(=O)C[C@@H](C(=O)N2CCOCC2)N(C)C(=O)[C@H](C2CCCC2)N(C)C(=O)C2(CCCC2)NC(=O)[C@@H]2CCCN2C(=O)[C@H](CCc2ccc(C(F)(F)F)c(Cl)c2)NC(=O)CN(C)C(=O)[C@@H]1Cc1ccccc1 [PP0216] ([NMeL]I[NMeA][Aze][X44][Sar][hPhe(3-Cl-4-CF3)]P[Ac5c][NMeGly(cPent)][NMeD]-Morpholide; lactam N-11) | – | – | C (A compound having a KD ratio of 0.1 or more and less than 3 is denoted as C) | B (a compound having 3 or more and less than 10 is denoted as B) | – |
